Test results as given in patent US7211572B2 (Japan Tobacco Inc., priority 2003, dated 2007).
Structures can show the parent of a compound that is named as a salt.

Target: T1, HIV integrase (Human immunodeficiency virus type 1 group M subtype B, UniProt P12497, F1332H)
T1 construct: HIV integrase full length gene; made in house; host or cells: Escherichia coli BL21(DE3), plasmid pET21a-INH
Test: Determination of enzyme (HIV integrase) inhibitory activity
Assay type: biochemical
Settings: recombinant HIV integrase (F185H), strand transfer ELISA, absorbance at 450 nm
Summary of the method: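 Full-length integrase with F185H, expressed in E. coli and purified, was reacted for 60 min at 37 °C with compound and biotinylated donor DNA bound to streptavidin plates. Target DNA was added for 10 min, then anti-digoxigenin-peroxidase detection at A450; IC50 from % inhibition versus enzyme-free blank.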

SMILES	IC50
O=C1c2c(O)c(=O)c(-c3nccs3)cn2CCN1Cc1ccc2ccccc2c1 [Example 311, 9-hydroxy-2-(naphthalen-2-ylmethyl)-7-(thiazol-2-yl)-3,4-dihydro-2H-pyrido[1,2-a]pyrazine-1,8-dione]	< 10 nM
O=C1c2c(O)c(=O)c(-c3nccs3)cn2CCN1CCCc1cccc(Cl)c1F [Example 312, 2-[3-(3-chloro-2-fluorophenyl)propyl]-9-hydroxy-7-(thiazol-2-yl)-3,4-dihydro-2H-pyrido[1,2-a]pyrazine-1,8-dione]	10 to 100 nM
O=C1c2c(O)c(=O)c(-c3nccs3)cn2CCN1CCCc1ccc(Cl)c(F)c1 [Example 313, 2-[3-(4-chloro-3-fluorophenyl)propyl]-9-hydroxy-7-(thiazol-2-yl)-3,4-dihydro-2H-pyrido[1,2-a]pyrazine-1,8-dione]	10 to 100 nM
O=C1c2c(O)c(=O)c(-c3nccs3)cn2CCN1CCCc1ccc(F)cc1 [Example 314, 2-[3-(4-fluorophenyl)propyl]-9-hydroxy-7-(thiazol-2-yl)-3,4-dihydro-2H-pyrido[1,2-a]pyrazine-1,8-dione]	10 to 100 nM
O=C1c2c(O)c(=O)c(-c3nccs3)cn2CCN1CCCc1cccc(F)c1 [Example 315, 2-[3-(3-fluorophenyl)propyl]-9-hydroxy-7-(thiazol-2-yl)-3,4-dihydro-2H-pyrido[1,2-a]pyrazine-1,8-dione]	10 to 100 nM
O=C1c2c(O)c(=O)c(-c3nccs3)cn2CCN1CCCc1ccccc1 [Example 316, 9-hydroxy-2-(3-phenylpropyl)-7-(thiazol-2-yl)-3,4-dihydro-2H-pyrido[1,2-a]pyrazine-1,8-dione hydrochloride]	10 to 100 nM
O=C1c2c(O)c(=O)c(-c3ccccn3)cn2CCN1Cc1cccc(Cl)c1F [Example 317, 2-(3-chloro-2-fluorobenzyl)-9-hydroxy-7-(pyridin-2-yl)-3,4-dihydro-2H-pyrido[1,2-a]pyrazine-1,8-dione hydrochloride]	10 to 100 nM
COCC(=O)Nc1cn2ccn(Cc3ccc(F)cc3)c(=O)c2c(O)c1=O [Example 318, N-[2-(4-fluorobenzyl)-9-hydroxy-1,8-dioxo-1,8-dihydro-2H-pyrido[1,2-a]pyrazin-7-yl]-2-methoxyacetamide]	10 to 100 nM
CC(C)S(=O)(=O)Nc1cn2ccn(Cc3ccc(F)cc3)c(=O)c2c(O)c1=O [Example 319, N-[2-(4-fluorobenzyl)-9-hydroxy-1,8-dioxo-1,8-dihydro-2H-pyrido[1,2-a]pyrazin-7-yl]-2-propanesulfonamide]	10 to 100 nM
O=C(Nc1cn2ccn(Cc3ccc(F)cc3)c(=O)c2c(O)c1=O)c1cccnc1 [Example 320, N-[2-(4-fluorobenzyl)-9-hydroxy-1,8-dioxo-1,8-dihydro-2H-pyrido[1,2-a]pyrazin-7-yl]nicotinamide trifluoroacetate]	< 10 nM
CC(C)C(=O)Nc1cn2ccn(Cc3ccc(F)cc3)c(=O)c2c(O)c1=O [Example 321, N-[2-(4-fluorobenzyl)-9-hydroxy-1,8-dioxo-1,8-dihydro-2H-pyrido[1,2-a]pyrazin-7-yl]isobutyramide]	10 to 100 nM
COCCNC(=O)c1cn2ccn(Cc3ccc(F)cc3)c(=O)c2c(O)c1=O [Example 322, N-(2-methoxyethyl)-2-(4-fluorobenzyl)-9-hydroxy-1,8-dioxo-1,8-dihydro-2H-pyrido[1,2-a]pyrazine-7-carboxamide]	10 to 100 nM
CCNC(=O)c1cn2ccn(Cc3ccc(F)cc3)c(=O)c2c(O)c1=O [Example 323, N-ethyl-2-(4-fluorobenzyl)-9-hydroxy-1,8-dioxo-1,8-dihydro-2H-pyrido[1,2-a]pyrazine-7-carboxamide]	10 to 100 nM
CC(=O)Nc1cn2ccn(CCCc3c(F)cccc3Cl)c(=O)c2c(O)c1=O [Example 324, N-{2-[3-(2-chloro-6-fluorophenyl)propyl]-9-hydroxy-1,8-dioxo-1,8-dihydro-2H-pyrido[1,2-a]pyrazin-7-yl]acetamide]	10 to 100 nM
